Source: the NIST ThermoML archive (doi:10.1021/je7001623)
Numbers after ± are expanded uncertainties.

Conditions: 101.33 kPa, Liquid; for mass density: Vibrating tube method; for viscosity: surface light scattering

## CC(C)CCCCCCCOC(=O)c1ccccc1C(=O)OCCCCCCCC(C)C
273.14 K
  mass density: 980.74 ± 0.4 kg/m3
278.15 K
  mass density: 977.13 ± 0.39 kg/m3
283.15 K
  mass density: 973.51 ± 0.39 kg/m3
  viscosity: 265.6 ± 8.2 mPa·s
288.15 K
  mass density: 969.94 ± 0.39 kg/m3
  viscosity: 177.4 ± 5.7 mPa·s
293.15 K
  mass density: 966.43 ± 0.39 kg/m3
  viscosity: 123.8 ± 3.9 mPa·s
298.15 K
  viscosity: 88.44 ± 2.7 mPa·s
298.16 K
  mass density: 962.9 ± 0.39 kg/m3
303.15 K
  viscosity: 64.84 ± 2 mPa·s
303.16 K
  mass density: 959.36 ± 0.39 kg/m3
308.15 K
  viscosity: 48.98 ± 1.5 mPa·s
308.16 K
  mass density: 955.81 ± 0.39 kg/m3
313.15 K
  viscosity: 38.01 ± 1.1 mPa·s
313.16 K
  mass density: 952.27 ± 0.39 kg/m3
318.16 K
  mass density: 948.73 ± 0.38 kg/m3
323.16 K
  mass density: 945.19 ± 0.38 kg/m3
328.16 K
  mass density: 941.65 ± 0.38 kg/m3
333.16 K
  mass density: 938.12 ± 0.38 kg/m3
338.16 K
  mass density: 934.6 ± 0.38 kg/m3
348.15 K
  mass density: 927.54 ± 0.38 kg/m3
353.15 K
  mass density: 924.02 ± 0.38 kg/m3
358.15 K
  mass density: 920.5 ± 0.38 kg/m3
363.15 K
  mass density: 916.95 ± 0.37 kg/m3
